The values below come from PMC7106726, “Robust high-throughput assays to assess discrete steps in ubiquitination and related cascades” (BMC Molecular and Cell Biology, 2020).

The target of assay [1] is T1, FLAG-Uba1 (Homo sapiens, UniProt P22314).
T1 construct: GST- and FLAG-tagged human Uba1 in pBJ842, expressed in S. cerevisiae BJ5654, GST cleaved with PreScission protease, FLAG tag kept
T1 sequence (P22314 2-1058): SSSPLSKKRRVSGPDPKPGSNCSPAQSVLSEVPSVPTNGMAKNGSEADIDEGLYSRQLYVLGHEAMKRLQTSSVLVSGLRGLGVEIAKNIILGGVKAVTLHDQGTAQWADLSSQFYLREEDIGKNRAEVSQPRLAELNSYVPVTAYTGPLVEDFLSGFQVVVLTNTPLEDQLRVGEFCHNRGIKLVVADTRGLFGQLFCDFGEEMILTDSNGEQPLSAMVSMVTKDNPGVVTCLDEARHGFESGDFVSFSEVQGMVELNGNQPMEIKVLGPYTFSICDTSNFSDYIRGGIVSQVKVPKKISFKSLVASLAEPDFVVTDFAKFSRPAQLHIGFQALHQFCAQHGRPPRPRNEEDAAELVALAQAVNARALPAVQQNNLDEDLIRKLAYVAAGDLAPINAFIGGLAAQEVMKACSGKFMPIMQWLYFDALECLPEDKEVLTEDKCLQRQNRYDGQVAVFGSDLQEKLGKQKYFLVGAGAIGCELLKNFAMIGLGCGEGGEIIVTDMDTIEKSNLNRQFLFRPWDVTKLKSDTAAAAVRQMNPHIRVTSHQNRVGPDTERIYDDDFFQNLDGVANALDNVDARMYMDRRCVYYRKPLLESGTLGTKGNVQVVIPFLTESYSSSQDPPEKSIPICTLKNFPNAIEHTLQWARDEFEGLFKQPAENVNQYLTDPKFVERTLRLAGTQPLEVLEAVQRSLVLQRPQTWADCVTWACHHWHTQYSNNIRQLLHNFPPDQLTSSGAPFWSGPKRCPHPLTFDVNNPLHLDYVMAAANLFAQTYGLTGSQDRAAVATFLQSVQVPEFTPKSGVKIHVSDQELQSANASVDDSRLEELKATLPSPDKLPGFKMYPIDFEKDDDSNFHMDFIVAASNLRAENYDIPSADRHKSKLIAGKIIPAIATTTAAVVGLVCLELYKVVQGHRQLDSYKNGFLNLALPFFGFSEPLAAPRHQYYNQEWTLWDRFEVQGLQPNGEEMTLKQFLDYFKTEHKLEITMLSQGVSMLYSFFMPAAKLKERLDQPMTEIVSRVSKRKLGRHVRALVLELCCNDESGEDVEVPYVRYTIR
Kind of assay: AlphaScreen Uba1~ubiquitin thioester formation. The format is biochemical. On the technique in general: In Alpha technology, singlet oxygen from a donor bead excites a nearby acceptor bead.

For assay [2], the target named is T1, FLAG-Uba1. Briefly: AlphaScreen Uba1~ubiquitin thioester formation. The settings on record: read-out: IC50for inhibition of PCNA ubiquitination (Alpha). The class given is biochemical. From the text: AlphaScreen Uba1~ubiquitin thioester formation on FLAG-Uba1
Setting [3] is: read-out: IC50for inhibition of Uba1~Ub thioester formation (Alpha).
The mark [4] stands for this setting: read-out: IC50for inhibition of PCNA ubiquitination (Alpha).

The structures appear in SMILES notation. Where two headings read alike, the source gives them in different places.

Consider `Oc1cc(O)c2c(c1)O[C@H](c1ccc(O)c(O)c1)[C@@H](O)C2` [Cat], for which the IC50 in assay [1] (read-out: IC50for inhibition of PCNA ubiquitination (Western blot) [19]) was above 500 µM.
Take `O=C(O[C@@H]1Cc2c(O)cc(O)cc2O[C@@H]1c1ccc(O)c(O)c1)c1cc(O)c(O)c(O)c1` [ECG]: the IC50 in assay [1] (setting [3]) was 0.769 µM.
For the molecule `Oc1cc(O)c2c(c1)O[C@H](c1ccc(O)c(O)c1)[C@H](O)C2` [EC], the IC50 in assay [1] (setting [4]) is above 500 µM.
In the case of `Oc1cc(O)c2c(c1)O[C@H](c1cc(O)c(O)c(O)c1)[C@H](O)C2` [EGC], the IC50 in assay [1] (setting [3]) came out at 5.96 µM.
In the case of `CCCCCCCCCCCCOC(=O)c1cc(O)c(O)c(O)c1` [DG], the IC50 in assay [1] (setting [3]) is 44.4 µM.
In the case of `CCCOC(=O)c1cc(O)c(O)c(O)c1` [PG], in assay [1] (setting [4]), the IC50 was above 500 µM.
Regarding `O=C1c2c(O)cc(O)cc2O[C@H](c2cc(O)c(O)c(O)c2)[C@H]1O` [DM], the IC50 in assay [1] (setting [3]) was determined as 27.5 µM.
Take `O=C(O)c1cc(O)c(O)c(O)c1` [GA]: the IC50 in assay [2] was above 500 µM.
`CCCCCCCCOC(=O)c1cc(O)c(O)c(O)c1` [OG]: in assay [1] (15 min preincubation, biotin-ubiquitin, 2 mM ATP, 8 mM MgCl2, pH 7.5, 25 °C, 30 min, 1% DMSO, read-out: IC50for inhibition of Uba1~Ub thioester formation (Alpha)), the IC50 worked out at 13.4 µM.
For the molecule `O=c1c(O)c(-c2cc(O)c(O)c(O)c2)oc2cc(O)cc(O)c12` [Myr], the IC50 in assay [1] (setting [3]) came to 1.59 µM.
